{"source": "patent US5624897A", "about": "“Cyclic depsipeptides having 18 ring atoms, and their use for combating endoparasites” (Bayer Aktiengesellschaft, priority 1993, dated 1997)", "key": {"Haemonchus contortus": {"system": "Haemonchus contortus", "test": "In vivo nematode test Haemonchus contortus/sheep", "settings": "experimentally infected sheep, treated after prepatent period; pure active compound orally and/or intravenously; dose at which nematode egg excretion with the faeces stops completely", "experimental": "Haemonchus contortus/Sheep\nSheep which have been infected experimentally with Haemonchus contortus were treated after the prepatent period had elapsed. The active compounds in the form of the pure active compound were administered orally and/or intravenously.\n(§1) The degree of effectiveness is determined by quantitative determination of the nematode eggs excreted with the faeces before and after the treatment.\n(§2) If, after the treatment, egg excretion stops completely, the nematodes were aborted or damaged to such an extent that they no longer produce eggs (dosis effectiva)."}, "[1]": {"system": "Trichostrongylus colubriformis", "test": "In vivo nematode test Trichostrongylus colubriformis/sheep", "settings": "experimentally infected sheep, treated after prepatent period; pure active compound orally and/or intravenously; dose at which nematode egg excretion with the faeces stops completely", "experimental": "Trichostrongylus colubriformis/Sheep\nSheep which have been infected experimentally with Trichostrongylus colubriformis were treated after the prepatent period had elapsed. The active compounds in the form of the pure active compound were administered orally and/or intravenously.\nas §1, §2"}}}
{"compound": "CC[C@H](C)[C@H]1C(=O)O[C@H](C)C(=O)N(C)[C@@H](C)C(=O)O[C@H](C)C(=O)N(C)[C@@H]([C@@H](C)CC)C(=O)O[C@H](C)C(=O)N1C", "note": "[Example 1, Cyclo(-N-methyl-L-alanyl-D-lactyl-N-methyl-L-isoleucyl-D-lactyl-N-methyl-L- isoleucyl-D-lactyl-)]", "values": [{"measurement": "Dosis effectiva", "setting": "Haemonchus contortus", "result": 10, "unit": "mg/kg"}, {"measurement": "Dosis effectiva", "setting": "[1]", "result": 10, "unit": "mg/kg"}]}
